Series [1] concerns MDA-MB-231 (breast). The series can be described thus: Anti-proliferation, cell count after 48 h (Coulter Counter), MDA-MB-231. The note with it: treated 48 hours, extrapolated from FIGS. 1-9. The format is cell-based. The protocol: (§1) In this study, the anti-proliferative effects of each of four glucosyl ether lipid compounds were assessed on a panel of epithelial cancer cell lines. Two Cglucosyl ether lipids in accordance with the invention (compounds 4 and 17) were evaluated. In addition, a 2′-deoxy C-glucosyl ether lipid (compound 2) and a 2′-amino-2′-deoxy O-glucosyl ether lipid (compound 3), were evaluated. Thirty mM stock concentration of each of the four compounds were prepared in ethanol.
(§2) The experimental procedure used is detailed in Lu, X. and Arthur, G., Cancer Res., 52:2806-2812 (1992), the pertinent parts of which are incorporated by reference. Briefly, the epithelial cancer cell lines, namely SK-N-MC and SK-N-SH (neuroblastoma); DU145 (prostate); A498 (kidney); MDA-MB-468, MDA-MB-231, HS578t, MCF-7 and BT549 (breast), were subcultured into 24-well plates and allowed to grow to exponential phase. The medium was changed and replaced with one containing the glucosyl ether lipid compounds ([…]) in 10% FBS-supplemented medium. The cell numbers in representative wells were determined at the time of addition of the compounds. After 48 hours, the cells were detached with trypsin and the numbers were determined with a Coulter Counter. The increase in cell numbers were expressed as a percentage relative to those in wells without any drug (control).
(§3) See Erukulla, et al., J. Med. Chem., 39:1545-1548 (1996), the pertinent portions of which are incorporated herein by reference. Table 1 summarizes the comparative test results for 17, 3, 4, and the 2-deoxy analog of 4, (3S)-3-O-methyl-4-O-hexadecyl-2′-deoxy-β-D-glucopyranosylbutane (compound 2), which had been described in our earlier paper (Yang et al., Org. Lett., 1:2149-2151 (1999)). The method utilized was the same as that described in Example 2 above, and the Gl50 values were extrapolated from the results shown in FIGS. 1-9. In all nine examples, the close similarity in antiproliferative activity is striking.

For series [2] the following is noted: comparison with compound 1; cited from earlier work.
The subject of series [3] is MCF-7 (breast). In words: Anti-proliferation, cell count after 48 h (Coulter Counter), MCF-7. It is filed as cell-based. The following applies: treated 48 hours, extrapolated from FIGS. 1-9. The protocol: as §1, §2, §3
The subject of series [4] is MDA-MB-468 (breast). The series can be described thus: Anti-proliferation, cell count after 48 h (Coulter Counter), MDA-MB-468. It is filed as cell-based. The note with it: treated 48 hours, extrapolated from FIGS. 1-9. The protocol: as §1, §2, §3
The test system of series [5] is A498 (kidney). In words: Anti-proliferation, cell count after 48 h (Coulter Counter), A498. It is filed as cell-based. The following applies: treated 48 hours, extrapolated from FIGS. 1-9. The protocol:
as §1, §2, §3

Series [6] deals with panel of epithelial cancer cell lines. In words: Cancer cell proliferation study, whole panel (FIGS. 1-9). It is filed as cell-based. The note with it: nine cancer cell lines, 48 hours, 10% FBS-supplemented medium. The procedure:
as §1, §2

Series [7] deals with HS578T (breast). In words: Anti-proliferation, cell count after 48 h (Coulter Counter), HS578T. The format is cell-based. The following applies: treated 48 hours, extrapolated from FIGS. 1-9. The protocol:
as §1, §2, §3

In series [8] the test system is SK-N-MC (neuroblastoma). In words: Anti-proliferation, cell count after 48 h (Coulter Counter), SK-N-MC. It is filed as cell-based. The note with it: neuronal, treated 48 hours, extrapolated from FIGS. 1-9. The protocol: as §1, §2, §3
Series [9] concerns DU145 (prostate). In words: Anti-proliferation, cell count after 48 h (Coulter Counter), DU145. The note with it: treated 48 hours, extrapolated from FIGS. 1-9. It is filed as cell-based. The procedure:
as §1, §2, §3

Series [10] deals with BT549 (breast). In words: Anti-proliferation, cell count after 48 h (Coulter Counter), BT549. The format is cell-based. The note with it: treated 48 hours, extrapolated from FIGS. 1-9. The procedure: as §1, §2, §3
Series [11] has as its system SK-N-SH (neuroblastoma). In words: Anti-proliferation, cell count after 48 h (Coulter Counter), SK-N-SH. The format is cell-based. The note with it: neuronal, treated 48 hours, extrapolated from FIGS. 1-9. The protocol: as §1, §2, §3
Series [12] in a line: Storage stability. The following applies: stored at 0° C. It is filed as physicochemical. The procedure: Deprotection and reduction of alkene 15 using H2 and 10% Pd/C afforded β-C-glycoside 16 in 85% yield. Of the several methods attempted for cleavage of the silyl group (e.g., Bu4NF, formic acid, acidic ionic exchange resin, and BF3, Et2O conditions), only BF3,Et2O in CH3CN gave a clean reaction (see King, et al., Tetrahedron Lett., 36:4563 (1995), the pertinent portions of which are incorporated herein by reference). The N-acetyl group was cleaved by using 2 N KOH/EtOH at reflux at 120° C. to afford the final product 4. [drawing 8]

Structures are written as SMILES. A value given as a limit tells only on which side of the number the result lay.

Take `CCCCCCCCCCCCCCCCOC[C@H](CC[C@H]1C[C@@H](O)[C@H](O)[C@@H](CO)O1)OC` [Compound 2, (3S)-3-O-methyl-4-O-hexadecyl-2′-deoxy-β-D-glucopyranosylbutane, reference compound]: the GI50 is over 15 µM in series [1]; over 15 µM in [3]; 11.4 µM in [4]; over 15 µM in series [5]; over 15 µM in series [7]; over 15 µM in series [8]. In addition, the concentration for 50% growth inhibition (GI50) in series [9], in series [10] and in series [11] was over 15 µM in each case. Besides, the “antiproliferative activity of C-glycoside relative to O-glycoside compound 1” value in series [2] was “several fold weaker activity”. Moreover, the “anti-proliferative efficacy (increase in cell numbers relative to control)” value in [6] was “generally less efficacious than the other two glycoside ether lipids evaluated”.
On to `CCCCCCCCCCCCCCCCOC[C@H](CC[C@@H]1O[C@H](CO)[C@@H](O)[C@H](O)[C@H]1NC(C)=O)OC` [Compound 17, (3S)-3-O-Methyl-4-O-hexadecyl 2′-acetamido-2′-deoxy-β-D-glucopyranosylbutane], for which the GI50 in series [1] was 40 µM; in series [3] it was 25 µM; in [4] it was 34.4 µM; in series [5], over 15 µM; in series [7] it was 21 µM; in series [8], over 15 µM. Moreover, the 50% growth inhibitory concentration (GI50) in [9] is over 15 µM; in series [10], 28.5 µM; in series [11], over 15 µM. Besides, the “anti-proliferative efficacy (increase in cell numbers relative to control)” value in [6] was “generally less efficacious than the other two glycoside ether lipids evaluated”.
Turning to `CCCCCCCCCCCCCCCCOC[C@H](CC[C@@H]1O[C@H](CO)[C@@H](O)[C@H](O)[C@H]1N)OC` [Compound 4, (3S)-3-O-methyl-4-O-hexadecyl-2′-amino-2′-deoxy-β-Dlucopyranosylbutane], the GI50 in series [1] was 9.1 µM; in [3], 8.1 µM; in series [4] it was 9 µM; in series [5] it was 8.5 µM; in [7] it was 5.1 µM; in series [8] it was 4.1 µM. The results for the GI50 in series [9], in series [10] and in series [11] were 7.9 µM, 8.9 µM and 4.1 µM, respectively. Besides, the “storage time without decomposition” value in series [12] is reported as “more than one month without any decomposition”.

A word on the GI50: it is the concentration that inhibits growth by half.

The values above are taken from patent US20020128214A1, “C-glucosyl ether lipids” (priority 2000, published 2002).
